From patent US11298412B2, “Sphingoid compounds for prophylaxis and/or therapy of coronaviridae infection” (priority 2020, dated 2022) come the findings set out here.

Structures are written as SMILES. “Also recorded” adds a separate entry of the source.

One data set concerns RV1b. Description: Binding of sphingosine to RV1b immobilized on agarose beads, remaining sphingosine by kinase assay. Set-up: species or system rhinovirus. The note with it: 250 μM sphingosine in PBS pH 7.0; 4 hrs at 4° C. The method, then:
As a complement to the above study, RV1b (obtained from ATCC) were immobilized to agarose beads and tested for binding of sphingosine (SPH). To this end, we incubated 1 μg/ml anti-RV1b antibodies with 10^6 CFU RV1b for 1 h at 4° C. in H/S, added 50 μL agarose protein A/G beads (Santa Cruz Inc.), incubated for an additional 1 h at 4° C. and washed the immobilized precipitates 5-times in H/S. We resuspended the beads in 500 μL PBS (pH 7.0) containing 250 μM sphingosine. Samples were incubated for 4 hrs at 4° C., pelleted and aliquots of the supernatants were added to 50 mM HEPES (pH 7.4), 250 mM NaCl, 30 mM MgCl2, 0.001 units sphingosine kinase (R&D), 1 mM ATP and 10 μCi [^32P]γATP. The kinase reaction was performed for 1 hr at 30° C., stopped by addition of 20 μl 1N HCl, 800 μl CHCl3/CH3OH/1N HCl (100:200:1, v/v/v), 240 μl CHCl3 and 2 M KCl. Phases were separated, the lower phase was collected, dried, dissolved in 20 μL of CHCl3:CH3OH (1:1, v/v) and separated on Silica G60 thin layer chromatography (TLC) plates using CHCl3/CH3OH/acetic acid/H2O (90:90:15:5, v/v/v/v). The TLC plates were exposed to radiography films, spots were removed from the plates, and the incorporation of [^32P] into sphingosine measured by liquid scintillation counting. Sphingosine was determined using a standard curve of C18-SPH. […]

Data set [1] in a line: Surface sphingosine in mouse nasal mucosa after intranasal application, in situ sphingosine kinase assay. Particulars: wild-type mice; 10 μL of 10 μM or 100 μM into the nostrils; 1, 4 and 8 hrs; without washing. In kind it is in vivo. On the procedure:
Sphingosine (SPH) was applied into the nose of wild-type mice and the concentration of sphingosine on the epithelial cell surface was determined after 1, 4 and 8 hrs (a.i.: after injection of sphingosine). To this end, 10 μL of a 10 μM or a 100 μM sphingosine solution was applied into the nostrils of wild-type mice. Controls received the solvent, i.e. octylglucopyranoside at the same concentration used when sphingosine was applied, or were left untreated. Mice were slightly and very briefly anesthetized with ether. For the intranasal application we used a blunt-end 30 g needle that was covered with a thin plastic film. The blunt-ended needle was inserted into the nostrils approximately 2 mm. Mice were sacrificed after the indicated time, the nasal bone was removed, placed on a 30° C. pre-warmed plastic plate and an area of 2 mm×2 mm was immediately incubated with 0.001 units of sphingosine kinase 1 (#6068-SK-010, R&D) in 4 μl of 150 mM sodium acetate (pH 7.4), 1 μM ATP, and 10 μCi [^32P]γATP/sample. Controls were incubated with the same buffer without sphingosine kinase or were left untreated. […] The TLC plates were analyzed with a phosphoimager. Surface sphingosine levels were determined with a standard curve of C18-sphingosine. […]

Data set [2] concerns epithelial cells of the nose. Description: Toxicity of intranasal sphingosine on nasal epithelial cells of mice, Trypan Blue. In kind it is in vivo. Particulars: wild-type mice; 10 μL of 10 μM or 100 μM intranasal; 8 hours or 24 hours. The method, then: Sphingosine was applied into the nose of wild-type mice as in 3.2. 10 μL of a 10 μM or a 100 μM sphingosine (SPH) solution was administered into the nostrils of wild-type mice. Controls received the solvent, i.e. octylglucopyranoside at the same concentration used when sphingosine was applied, or were left untreated. Mice were anesthetized prior to application of sphingosine. Mice were sacrificed after 8 hours or 24 hours, the nasal bone was removed and incubated in Trypsin solution for 10 min to release and isolate epithelial cells. Cells were washed twice in H/S (20 mM HEPES, 132 mM NaCl, 5 mM KCl, 1 mM CaCl2), 0.7 mM MgCl2, 0.8 mM MgSO4, pH 7.4), stained with Trypan Blue (0.2% final concentration) and dead cells were counted in aliquots of 500 cells. Given is the percentage of dead cells±SD from 4 independent experiments each; *p<0.05, ANOVA.

The subject of a further data set is rhinovirus 14 (RV14). Description: RV14 infection of freshly isolated human epithelial cells, Hela cytotoxicity readout. The class given is cell-based. The note with it: 10 μM or 20 μM, 24 hrs. The method, then: 10^4 PFU of Rhinovirus 2 or 14 (RV2, RV14) were incubated with freshly isolated human epithelial cells for 24 hrs in the presence of 10 μM or 20 μM sphingosine (SPH) or the corresponding concentration of the solvent octylglucopyranoside (OGP), the cells were pelleted, supernatants completely removed, the cell pellets resuspended in PBS and added to Hela cells. Cells were incubated for 3 days and cytotoxicity as measurement for virus titers was determined. Shown is the mean±SD, n=4, *p<0.001 ANOVA.

The test system of a further data set is pp-VSV-SARS-CoV-2 spike. The class given is cell-based.
A further data set concerns Hela cells. Description: Effect of sphingosine alone on Hela cells, Trypan Blue cell death. The note with it: uninfected Hela cells; 10 μM or 20 μM.
Data set [3] addresses pp-VSV-SARS-CoV-2 / recombinant ACE2 (Homo sapiens, UniProt Q9BYF1). In words: Binding of pp-VSV-SARS-CoV-2 to immobilized recombinant ACE2, Vero infection with supernatant. Particulars: 1 or 2 μM sphingosine; immobilized Fc-ACE2.

Chain of pp-VSV-SARS-CoV-2 / recombinant ACE2 (Q9BYF1 18-740): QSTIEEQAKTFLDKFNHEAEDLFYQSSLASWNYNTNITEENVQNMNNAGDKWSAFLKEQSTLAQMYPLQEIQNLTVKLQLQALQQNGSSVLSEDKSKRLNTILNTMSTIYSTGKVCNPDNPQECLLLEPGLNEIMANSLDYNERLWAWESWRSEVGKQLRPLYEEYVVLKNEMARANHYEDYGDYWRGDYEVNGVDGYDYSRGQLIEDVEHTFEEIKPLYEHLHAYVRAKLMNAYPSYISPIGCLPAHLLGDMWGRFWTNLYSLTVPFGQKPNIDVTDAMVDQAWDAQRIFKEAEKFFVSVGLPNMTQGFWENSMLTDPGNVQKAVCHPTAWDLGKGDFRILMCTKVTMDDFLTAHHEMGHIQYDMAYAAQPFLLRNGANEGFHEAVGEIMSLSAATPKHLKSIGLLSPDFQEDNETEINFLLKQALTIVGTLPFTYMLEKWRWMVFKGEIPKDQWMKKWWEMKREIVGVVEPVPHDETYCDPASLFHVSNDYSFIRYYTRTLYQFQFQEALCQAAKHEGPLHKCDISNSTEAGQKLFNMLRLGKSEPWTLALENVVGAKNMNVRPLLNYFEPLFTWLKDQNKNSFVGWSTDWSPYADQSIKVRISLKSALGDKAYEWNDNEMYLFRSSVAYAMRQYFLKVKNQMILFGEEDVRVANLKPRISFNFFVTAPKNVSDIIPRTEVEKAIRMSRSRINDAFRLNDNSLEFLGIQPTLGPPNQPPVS

Consider `CCCCCCCCCCCCC/C=C/[C@@H](O)[C@@H](N)CO` [sphingosine, (2S,3R,4E)-2-amino-4-octadecene-1,3-diol], for which the “binding of sphingosine to RV1b-coupled agarose beads (remaining sphingosine in the supernatant)” value in the data set with RV1b is “efficiently bind sphingosine”. In data set [1], the “sphingosine concentration on the nasal epithelial cell surface / in the mucosa” value is “dose-dependent accumulation of sphingosine in the mucosa; also recorded: dose dependent increase in the local sphingosine concentration in the nasal mucosa”. Also, the “toxic effects on nasal epithelial cells (percentage of dead cells)” value in data set [2] is on record as “no toxic effects on epithelial cells of the nose; also recorded: no toxic side effects”. In the data set with rhinovirus 14 (RV14), the “infection of human epithelial cells by RV14” value is reported as “abrogates infection of human epithelial cells; also recorded: prevents infection of freshly isolated human nasal epithelial cells”. In addition, the “infection of human nasal epithelial cells with pp-VSV-SARS-CoV-2 spike (eGFP positive cells)” value in the data set on pp-VSV-SARS-CoV-2 spike is listed as “prevented infection; also recorded: prevents infection of freshly isolated human nasal endothelial cells by SARS-CoV-2”. Besides, in the data set on Hela cells, the “effect of sphingosine itself on the cells (percentage of dead cells)” value is listed as “no effect on the cells”. The “binding of intact pp-VSV-SARS-CoV-2 to recombinant ACE2” value in data set [3] was “abrogated binding of intact pp-VSV-SARS-CoV-2 to recombinant ACE2; also recorded: prevents binding of SARS-CoV-2 spike protein to the ACE2 receptor”.
